Assay results: PubChem BioAssay AID330 (DTP/NCI, 2004)
Values joined by “and” are separate entries in the source; they are usually repeats but may differ in a detail not shown here. Equal values may be shown once. Inconclusive results and toxic doses are left out. The calls were made as follows: active = survival T/C of 150% or more; inactive = T/C below 125% in these data.

Test system: P388 leukemia ip, CD2F1 mice, survival T/C
Test: NCI In Vivo Anticancer Drug Screen. Data for tumor model P388 Leukemia (intraperitoneal) in CD2F1 (CDF1) mice
Details: endpoint: median survival time, higher = longer survival
Outline: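 Mice carrying the transplanted tumor received test compound or vehicle. Survival was recorded in each group, and the value is the treated-group measurement divided by that of the vehicle-treated control group.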

[1] = dose: 50.0 mg/kg/injection, schedule: Q01DX009 (ip), vehicle: saline with Tween-80
[2] = dose: 100.0 mg/kg/injection, schedule: Q01DX009 (ip), vehicle: saline with Tween-80
[3] = dose: 200.0 mg/kg/injection, schedule: Q01DX009 (ip), vehicle: saline with Tween-80
[4] = dose: 50.0 mg/kg/injection, schedule: Q01DX005 (ip), vehicle: Klucel (hydroxypropylcellulose) (HPC)
[5] = dose: 100.0 mg/kg/injection, schedule: Q01DX005 (ip), vehicle: Klucel (hydroxypropylcellulose) (HPC)
[6] = dose: 200.0 mg/kg/injection, schedule: Q01DX005 (ip), vehicle: Klucel (hydroxypropylcellulose) (HPC)

Measured: T/C

Cc1nc(Cl)c(C#N)nc1C
inactive: [1] 100 % of control | dose: 50.0 mg/kg/injection, schedule: Q04DX003 (ip), vehicle: saline with Tween-80 110 % of control | [2] 100 % of control | dose: 100.0 mg/kg/injection, schedule: Q04DX003 (ip), vehicle: saline with Tween-80 100 % of control | [3] 100 % of control | dose: 200.0 mg/kg/injection, schedule: Q04DX003 (ip), vehicle: saline with Tween-80 100 % of control

CC(O)CNC(=O)Nc1ccccc1 (stereo unspecified)
inactive: dose: 60.0 mg/kg/injection, schedule: Q01DX005 (ip), vehicle: Klucel (hydroxypropylcellulose) (HPC) 97 % of control | dose: 120.0 mg/kg/injection, schedule: Q01DX005 (ip), vehicle: Klucel (hydroxypropylcellulose) (HPC) 95 % of control | dose: 240.0 mg/kg/injection, schedule: Q01DX005 (ip), vehicle: Klucel (hydroxypropylcellulose) (HPC) 88 % of control

CC(=O)c1ccc2c3c(cc(C)c2c1)CCCC3
inactive: [4] 103 % of control | [5] 99 % of control | [6] 89 % of control

CC(=O)NC(C(=O)O)C(C)SCc1ccccc1 (stereo unspecified)
inactive: [1] 100 % of control | [2] 91 % of control | [3] 97 % of control

CCOCCOCCOC(C)Oc1cccc(C(=O)OCC)c1 (stereo unspecified)
inactive: dose: 60.0 mg/kg/injection, schedule: Q01DX005 (ip), vehicle: saline with Tween-80 92 % of control | dose: 120.0 mg/kg/injection, schedule: Q01DX005 (ip), vehicle: saline with Tween-80 100 % of control | dose: 240.0 mg/kg/injection, schedule: Q01DX005 (ip), vehicle: saline with Tween-80 92 % of control

CSc1nc(SC)c2cnn(COCCO)c2n1
inactive: dose: 50.0 mg/kg/injection, schedule: Q01DX005 (ip), vehicle: saline with Tween-80 92 % of control | dose: 100.0 mg/kg/injection, schedule: Q01DX005 (ip), vehicle: saline with Tween-80 92 % of control | dose: 200.0 mg/kg/injection, schedule: Q01DX005 (ip), vehicle: saline with Tween-80 92 % of control

COc1ccc(CCNC(=O)c2c3nc4c(C(=O)NCCc5ccc(OC)cc5)ccc(C)c4oc-3c(C)c(=O)c2N)cc1
inactive: dose: 50.0 mg/kg/injection, schedule: Q04DX003 (ip), vehicle: DMSO 98 % of control | dose: 100.0 mg/kg/injection, schedule: Q04DX003 (ip), vehicle: DMSO 100 % of control | dose: 200.0 mg/kg/injection, schedule: Q04DX003 (ip), vehicle: DMSO 98 % of control

Cc1cccc(Nc2nc(C)nc3[nH]cc(C)c23)c1
inactive: [4] 92 % of control | [5] 90 % of control

CN1CCC(C(C)(C)C)CC1
inactive: dose: 25.0 mg/kg/injection, schedule: Q01DX005 (ip), vehicle: Klucel (hydroxypropylcellulose) (HPC) 89 % of control | [4] 94 % of control | [5] 93 % of control | [6] 98 % of control

O=C(O)c1c[nH]c2ccc([N+](=O)[O-])cc2c1=O
inactive: dose: 0.63 mg/kg/injection, schedule: Q01DX009 (ip), vehicle: Klucel (hydroxypropylcellulose) (HPC) 110 % of control | dose: 1.25 mg/kg/injection, schedule: Q01DX009 (ip), vehicle: Klucel (hydroxypropylcellulose) (HPC) 94 % of control | dose: 2.5 mg/kg/injection, schedule: Q01DX009 (ip), vehicle: Klucel (hydroxypropylcellulose) (HPC) 101 % of control | dose: 5.0 mg/kg/injection, schedule: Q01DX009 (ip), vehicle: Klucel (hydroxypropylcellulose) (HPC) 104 % of control | dose: 10.0 mg/kg/injection, schedule: Q01DX009 (ip), vehicle: Klucel (hydroxypropylcellulose) (HPC) 100 % of control | dose: 90.0 mg/kg/injection, schedule: Q01DX009 (ip), vehicle: Klucel (hydroxypropylcellulose) (HPC) 86 % of control

CC(C)N1C(C)c2ccccc2OS1=O (stereo unspecified)
inactive: dose: 50.0 mg/kg/injection, schedule: Q01DX009 (ip), vehicle: Klucel (hydroxypropylcellulose) (HPC) 99 % of control | dose: 100.0 mg/kg/injection, schedule: Q01DX009 (ip), vehicle: Klucel (hydroxypropylcellulose) (HPC) 108 % of control

CCOP(=O)(OCC)C1CCC(=O)O1 (stereo unspecified)
inactive: dose: 15.0 mg/kg/injection, schedule: Q01DX005 (ip), vehicle: saline 100 % of control | dose: 30.0 mg/kg/injection, schedule: Q01DX005 (ip), vehicle: saline 99 % of control | dose: 60.0 mg/kg/injection, schedule: Q01DX005 (ip), vehicle: saline 99 % of control and 94 % of control
